≈ marks a conversion by molar mass, not a printed value. Where two headings read alike, the source gives them in different places.
Tests used:
[1] = test system: S. intermedius (1051997); assay: MIC determination by microplate dilution, S. intermedius animal strain; assay type: cell-based, Staphylococcus intermedius; conditions: Staphylococcus intermedius, Gram-positive, Mueller-Hinton medium, 24 h, 37° C.
In short: (§1)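 In Mueller-Hinton broth, strains seeded at an OD of 0.01 are exposed to two-fold dilutions of compound (stock 5 mg/mL in DMSO/methanol) for 24 h at 37 °C. Growth is then measured by absorbance at 620 nm.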

[2] = test system: P. aeruginosa (1051575); assay: Potentiation of erythromycin activity; assay type: cell-based, Pseudomonas aeruginosa; conditions: concentration of compound required with erythromycin 2 μg/mL
Description: (§2) This method requires the use of a 96-well plate: 100 μL of a liquid culture medium are placed in each well and then seeded with the microbial suspension prepared previously. The required volume to be seeded is calculated for an OD of 0.01, which corresponds to about 5×10^6 bacteria in each well. In this plate, the first line corresponds to a negative control (200 μL of sterile culture medium in each well), the second line corresponds to a positive control (100 μL of sterile culture medium+100 μL of the bacterial suspension), and the third line contains 192 μL of culture medium; 8 μL of compound of formula (I) to be tested are placed in each well. Thereafter, a cascade dilution is performed from this line. μL of a doxycycline solution (1 mg dissolved in 20 mL) are then added to each well of the lines 3 to 8 to obtain a final antibiotic concentration of 2 μg/mL. 92 μL of bacterial suspension are then added to lines 3 to 8. […] After 24 hours of incubation at 37° C., 40 μL of nitro tetrazolium iodide are added to each well to reveal the presence of live bacteria by staining the medium pink.
The procedure is identical to that indicated in Example 5 above. 8 μL of an antibiotic solution under consideration (1 mg dissolved in 20 mL) are added to obtain a final antibiotic concentration of 2 μg/mL instead of 8 μL of a doxycycline solution.
(§3) The results are given in table V. They indicate the concentration of compound of formula (I) required to be able to restore the activity of the antibiotic under consideration.

[3] = test system: P. aeruginosa (1051575); assay: Potentiation of chloramphenicol activity; assay type: cell-based, Pseudomonas aeruginosa
Description: as §2, with “Thereafter, a cascade dilution is performed from this line. μL of a doxycycline solution (1 mg dissolved in 20 mL) are then added to each well of the lines 3 to 8 to obtain a final antibiotic concentration of 2 μg/mL.” left out
(§4) The procedure is identical to that indicated in Example 5 above. […]
as §3

[4] = test system: S. aureus ATCC25923; assay: MIC determination by microplate dilution, S. aureus human strain; assay type: cell-based, Staphylococcus aureus; conditions: Staphylococcus aureus, ATCC25923, Gram-positive, Mueller-Hinton medium, 24 h, 37° C.
In short: as §1

[5] = test system: S. aureus (340); assay: MIC determination by microplate dilution, S. aureus animal strain; assay type: cell-based, Staphylococcus aureus; conditions: Staphylococcus aureus, Gram-positive, Mueller-Hinton medium, 24 h, 37° C.
In short: as §1

[6] = test system: E. faecalis ATCC29212; assay: MIC determination by microplate dilution, E. faecalis human strain; assay type: cell-based, Enterococcus faecalis; conditions: Enterococcus faecalis, ATCC29212, Gram-positive, Mueller-Hinton medium, 24 h, 37° C.
In short: as §1

[7] = test system: E. coli ATCC28922; assay: MIC determination by microplate dilution, E. coli human strain; assay type: cell-based, Escherichia coli; conditions: Escherichia coli, ATCC28922, Gram-negative, Mueller-Hinton medium, 24 h, 37° C.
In short: as §1

[8] = test system: E. coli (1956); assay: MIC determination by microplate dilution, E. coli animal strain; assay type: cell-based, Escherichia coli; conditions: Escherichia coli, Gram-negative, Mueller-Hinton medium, 24 h, 37° C.
In short: as §1

[9] = test system: P. aeruginosa ATCC27853; assay: MIC determination by microplate dilution, P. aeruginosa human strain; assay type: cell-based, Pseudomonas aeruginosa; conditions: Pseudomonas aeruginosa, ATCC27853, Gram-negative, Mueller-Hinton medium, 24 h, 37° C.
In short: as §1

[10] = test system: P. aeruginosa (1051575); assay: MIC determination by microplate dilution, P. aeruginosa animal strain; assay type: cell-based, Pseudomonas aeruginosa; conditions: Pseudomonas aeruginosa, Gram-negative, Mueller-Hinton medium, 24 h, 37° C.
In short: as §1

[11] = test system: P. aeruginosa (1051575); assay: Potentiation of the doxycycline activity at 2 μg/mL; assay type: cell-based, Pseudomonas aeruginosa; conditions: for MIC - P. aeruginosa (1051575): content of compound of formula (I) to restore the doxycycline activity (at 2 μg/mL): in combination with doxycycline 2 μg/mL, 24 h, 37°
[12] = test system: P. aeruginosa (1051575); assay: Potentiation of ampicillin activity; assay type: cell-based, Pseudomonas aeruginosa; conditions: concentration of compound required with ampicillin 4 μg/mL
Description: as §2, with “Thereafter, a cascade dilution is performed from this line. μL of a doxycycline solution (1 mg dissolved in 20 mL) are then added to each well of the lines 3 to 8 to obtain a final antibiotic concentration of 2 μg/mL.” left out
as §4, §3

[13] = test system: CHO-K1 cells; assay: WST1 cytotoxicity test on CHO-K1 cells; assay type: cell-based, Chinese hamster; conditions: Cricetulus griseus
In short: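 Viability read-out: WST-1 tetrazolium cleavage by mitochondrial dehydrogenases, 20 min at 37 °C, A450. Compounds added at rising concentrations, in duplicate, to CHO-K1 cells for 24 h (37 °C, 5% CO2). IC50, the concentration halving viability, fitted by nonlinear regression.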

[14] = test system: C. albicans; assay: Antifungal activity, cascade microdilution, C. albicans; assay type: cell-based, Candida albicans; conditions: Candida albicans, 24 h, read-out: IC50 (μg/mL) C. albicans
[15] = concentration of compound required with chloramphenicol 2 μg/mL
[16] = concentration of compound required with chloramphenicol 4 μg/mL

In the case of `CC(C)OC(=O)CC[C@@H](C)[C@H]1CCC2C3CCC4C[C@@H](NCCN(CCN)CCN)CC[C@]4(C)C3CC[C@@]21C` (stereo partly drawn) [(48), isopropyl 3β-(tris(2-aminoethyl)amine)lithocholate], the MIC [1] is reported as 7 µg/mL (≈ 12.8 µM), the “MIC P. aeruginosa (1051575), compound + erythromycin” value [2] is reported as 55 µg/mL and the “MIC P. aeruginosa (1051575), compound + chloramphenicol” value [3, 15] is reported as 7 µg/mL.

Work on `CC(C)OC(=O)CC[C@@H](C)[C@H]1CCC2C3CCC4C[C@@H](NCCN(CCN)CCN)CC[C@]4(C)C3C[C@H](O)[C@@]21C` (stereo partly drawn) [(29), isopropyl 3β-(tris(2-aminoethyl)amine)deoxycholate] yielded an MIC [4] of 28 µg/mL (≈ 49.7 µM), an MIC [5] of 14 µg/mL (≈ 24.9 µM) and an MIC [1] of 14 µg/mL (≈ 24.9 µM). The MIC [6] was 28 µg/mL (≈ 49.7 µM), the MIC [7] was 14 µg/mL (≈ 24.9 µM) and the MIC [8] was 28 µg/mL (≈ 49.7 µM). For the same molecule, the MIC [9] was 56 µg/mL (≈ 99.5 µM), the MIC [10] was 56 µg/mL (≈ 99.5 µM) and the “MIC - P. aeruginosa (1051575): content of compound of formula (I) to restore the doxycycline activity (at 2 μg/mL)” value [11] was 4 µg/mL. For the same molecule, the “MIC P. aeruginosa (1051575), compound + ampicillin” value [12] was 56 µg/mL, the “MIC P. aeruginosa (1051575), compound + erythromycin” value [2] was 56 µg/mL and the “MIC P. aeruginosa (1051575), compound + chloramphenicol” value [3, 16] was 7 µg/mL.

`CC(C)OC(=O)CC[C@@H](C)[C@H]1CCC2C3C(CC[C@@]21C)[C@@]1(C)CC[C@H](NCCCNCCCN)CC1C[C@H]3O` (stereo partly drawn) [(11), isopropyl 3β-norspermidinochenodeoxycholate] showed an MIC [4] of 7 µg/mL (≈ 12.8 µM), an MIC [5] of 2 µg/mL (≈ 3.65 µM) and an MIC [1] of 2 µg/mL (≈ 3.65 µM). For the same molecule, the MIC [6] was 3.5 µg/mL (≈ 6.39 µM), the MIC [7] was 14 µg/mL (≈ 25.6 µM) and the MIC [10] was 14 µg/mL (≈ 25.6 µM). The IC50 ([13]; CHO-K1, 24 h, read-out: IC50 (μg/mL) CHO) was 140 µg/mL (≈ 256 µM), the IC50 ([13]; CHO-K1, read-out: IC50 (μg/mL) CHO) was 140 µg/mL (≈ 256 µM) and the synergism with doxycycline ([11]; administered with doxycycline at 2 μg/mL) was “noteworthy synergism”. For the same molecule, the “MIC - P. aeruginosa (1051575): content of compound of formula (I) to restore the doxycycline activity (at 2 μg/mL)” value [11] was 1 µg/mL, the “MIC P. aeruginosa (1051575), compound + ampicillin” value [12] was 56 µg/mL and the “MIC P. aeruginosa (1051575), compound + erythromycin” value [2] was 28 µg/mL. For the same molecule, the “MIC P. aeruginosa (1051575), compound + chloramphenicol” value [3, 16] was 2 µg/mL and the IC50 [14] was 4 µg/mL (≈ 7.3 µM).

For `CC(C)OC(=O)CC[C@@H](C)[C@H]1CCC2C3CCC4C[C@@H](NCCCN(CCCN)CCCN)CC[C@]4(C)C3CC[C@@]21C` (stereo partly drawn) [(47), isopropyl 3β-(tris(3-aminopropyl)amine)lithocholate], the MIC [5] was 7 µg/mL (≈ 11.9 µM), the MIC [1] was 4 µg/mL (≈ 6.79 µM) and the MIC [8] was 60 µg/mL (≈ 102 µM). The MIC [10] was 30 µg/mL (≈ 50.9 µM), the IC50 ([13]; CHO-K1, CHO (Example 7), read-out: IC50 (μg/mL) CHO) was 120 µg/mL (≈ 204 µM) and the “MIC P. aeruginosa (1051575), compound + erythromycin” value [2] was 30 µg/mL. For the same molecule, the “MIC P. aeruginosa (1051575), compound + chloramphenicol” value [3, 15] was 4 µg/mL and the IC50 ([14]; compounds as hydrochloride in water, MH medium) was 2 µg/mL (≈ 3.4 µM).

Molecule `CC(C)OC(=O)CC[C@@H](C)[C@H]1CCC2C3C(CC[C@@]21C)[C@@]1(C)CC[C@H](NCCN(CCN)CCN)CC1C[C@@H]3O` (stereo partly drawn) [(43), isopropyl 3β-(tris(2-aminoethyl)amine)ursodeoxycholate] has an MIC [1] of 7 µg/mL (≈ 12.4 µM), an MIC [8] of 56 µg/mL (≈ 99.5 µM) and an MIC [10] of 14 µg/mL (≈ 24.9 µM). For the same molecule, the “MIC P. aeruginosa (1051575), compound + erythromycin” value [2] was 28 µg/mL.

`CC(C)OC(=O)CC[C@@H](C)[C@H]1CCC2C3CCC4C[C@@H](NCCNCCNCCNCCNCCN)CC[C@]4(C)C3CC[C@@]21C` (stereo partly drawn) [(26), isopropyl 3β-(pentaethylenehexamine)lithocholate] gave an MIC [5] of 18 µg/mL (≈ 28.4 µM), an MIC [1] of 8 µg/mL (≈ 12.6 µM) and an MIC [8] of 60 µg/mL (≈ 94.8 µM). The MIC [10] was 60 µg/mL (≈ 94.8 µM), the “MIC P. aeruginosa (1051575), compound + erythromycin” value [2] was 60 µg/mL and the “MIC P. aeruginosa (1051575), compound + chloramphenicol” value [3, 15] was 8 µg/mL.

Reference: patent US20190255073A1, “ESTERS OF 3-POLYAMINE DERIVATIVES OF BILE ACIDS FOR THE TREATMENT OF INFECTIONS” (VIRBAC, priority 2016, published 2019)
